# Measured values from patent US20080081781A1, “Methods and compositions for the treatment of metabolic syndrome” (priority 2004, published 2008).
# Counter-ions that a name gives are not always drawn. Like-named read-outs stand apart in the source and are kept apart here.
# What was measured:
# [1] = Pharmacokinetics of 3H-berberine in rabbits, intravenous and intravenous drip
# Protocol: 0.1 ml of blood was removed at various times and radiation emissions were measured.
# [2] = Tissue distribution of 3H-berberine in mice; assay type: in vivo, mouse; details: tail vein 135 LBq/10 g, 5 minutes to 2 hours
# Protocol: Tissue radiation emission was measured 5 minutes to 2 hours after administration with the distribution of the berberine concentrations from highest to lowest being: lung>liver>kidney>spleen>heart>intestine>stomach>brain.
# [3] = Excretion of berberine in rats (urine, fecal matter, gall bladder secretions); assay type: in vivo, rat; details: rats, oral 3H-berberine, forty-eight hours
# Protocol: In a final series of animal model studies, rats were orally administered 3H-berberine. Forty-eight hours after administration, excretions were tested for the presence of berberine. 2.7% of the oral dose was measured in the urine and 86% of the oral dose was measured in the fecal matter.
# Rats received intravenous berberine (9.25 MBq/kg). Six days accumulation of rat urine and fecal secretions were measured for the presence of berberine. 73% of the intravenous dose of the berberine was found in the accumulated urine in both metabolized and unmetabolized forms. 10.9% of the intravenous dose was found in the fecal matter.
# Three rats were given berberine (9.25 MBq/kg) intravenously. After 24 hours, gall bladder secretions were collected and evaluated for the presence of berberine. There was 10.1±0.9% (x±SD, n=3) of berberine in the gall bladder secretions.
# [4] = Distill Water; amount of solute 10 mg
# [5] = test system: InsR mRNA; experiment: Kinase inhibitors on berberine-induced InsR gene transcription in HepG2 cells (RT-PCR); assay type: cell-based, human; details: HepG2, inhibitor 1 hour before 7.5 μg berberine 8 hours; calphostin C 0.2 μM
# Protocol: (§1) To explore the pathway responsible for the berberine-induced InsR gene transcription, different kinase inhibitors were used, including the MEK1-ERK inhibitor U0126, the p38 kinase inhibitor SB203580, the c-Jun N-terminal kinase inhibitor curcumin, the PI-3 kinase inhibitor wortmannin, and the PKC inhibitor calphostin C.
# (§2) HepG2 cells were pretreated with each of the inhibitors 1 hour prior to treatment with 7.5 μg of berberine for 8 hours. Total RNA was then isolated and the relative amount of InsR and LDLR mRNA was measured by quantitative RT-PCR as described in Example XVII. It was determined that the activity of berberine on InsR gene transcription was most sensitive to the PKC inhibitor calphostin C.
# [6] = test system: LDLR mRNA; experiment: Kinase inhibitors on berberine-induced LDLR mRNA in HepG2 cells (RT-PCR); assay type: cell-based, human; details: HepG2, inhibitor 1 hour before 7.5 μg berberine 8 hours; calphostin C 0.2 μM
# Protocol: as §1, §2
# [7] = test system: hyperlipidemia patients; details: three months
# Protocol: After three months, fasting serum concentrations of cholesterol, triglycerides, HDL and LDL were measured using standard blood lipid tests.
# [8] = test system: rat model subjects; experiment: Combinatorial anti-hyperlipidemia efficacy of berberine and lovastatin in rats (Table 9); assay type: in vivo
# [9] = test system: patients with type 2 diabetes; assay type: in vivo, human; details: patients with type 2 diabetes, Mean ± SE
# Source text: Ninety-seven hyperglycemic patients (54 males and 43 females) with fasting blood glucose>7 mmol/L and post-prandial blood glucose>11.1 mmol/L were enrolled in a study at the Nanjing First Hospital in Nanjing, China. The patients were asked to end any current treatments for hyperglycemia at least 2 weeks prior to commencement of the study.
# Fifty of the patients (male/female, 27/23; age 57±8y) were randomly assigned to be given 0.5 gram twice a day (1g/day total) of berberine (Nanjing Second Pharmaceutics, Inc., Nanjing, China), orally for 2 months. Out of these 50 patients, 25 had hyperlipidemia, 9 had hypertension and 2 had cardiovascular disease. Twenty-six patients (male/female, 15/11; age 56±11 y) were given 1.5 grams of metformin (Double-Crane Pharmaceutical, Inc., Beijing, China) per day, orally for two months. Of these twenty-six patients, 11 had hyperlipidemia, and four had hypertension. The remaining twenty-one patients (male/female, 11/10, age 49±10 y) were given 4 mg per day of rosiglitazone (Glaxowelcome, UK), orally for two months. Of these 21 patients, ten had hyperlipidemia and four had hypertension. Metformin and rosiglitazone served as reference controls as they are standard treatments for type 2 diabetes.
# Blood samples were taken prior to the commencement of therapy and after completion of the therapy.
# [10] = test system: high fat high cholesterol (HFHC) diet rats; experiment: Combination treatment with berberine and simvastatin in HFHC diet rats (Table 8); assay type: in vivo, rat; details: oral, after 25 days, daily dose berberine 100 mg/kg, simvastatin 25 mg/kg, combination 100 + 25, average ± standard error
# Protocol: Rats were fed a high fat high cholesterol (HFHC) diet for 10 days, and then divided into groups of seven. The rats were then administered berberine or simvastatin, or a combination of berberine and simvastatin orally for 25 days. After 25 days, serum cholesterol, triglyceride and LDL-c levels were measured. […] The combination of simvastatin, and berberine lowered the cholesterol, triglyceride and LDL-c levels further than either alone.
# [11] = test system: InsR gene promoter; experiment: InsR promoter activity, pGL3-1.5kIRP transfected HepG2 cells; assay type: cell-based, human; details: pGL3-1.5kIRP transfected HepG2; calphostin C 0.2 μM, berberine 5 μg/ml
# Protocol: The InsR promoter luciferase gene fusion plasmid (pGL3-1.5kIRP) was kindly provided by Dr. Araki E of the Graduate School of Medical Sciences, Kumamoto University, Honjo, Kumamoto, Japan.
# After overnight incubation, the cells were treated with DMSO as the solvent control or with 0, 1, 2.5, 5, 7.5 and 10 μg/ml berberine for 8 h. Cell lysates were prepared and luciferase activities were measured using the Luciferase Reporter Gene Assay (Roche Applied Science). The experiment was repeated 4 times.
# [12] = test system: LDLR promoter; experiment: LDLR promoter activity, pLDLR234Luc reporter in HepG2 cells; assay type: cell-based, human; details: pLDLR234Luc HepG2, LPDS or LPDS and cholesterol medium, 8 hour treatment
# Source text: HepG2 cells were transfected with the reporter construct pLDLR234Luc, which contains the SRE- I motif and the sterol-independent regulatory element that mediates the cytokine oncostatin M-induced transcription of the LDLR gene.
# [13] = 0.5 g twice a day, all treated patients (n=63)
# [14] = only participants neither on drugs nor special diets
# [15] = high fat diet rats treated for 15 days, berberine 80 mg/kg/day, lovastatin 10 mg/kg/day
# [16] = high fat diet rats, Day 0 (untreated rats, baseline)
# [17] = After treatment (2 months), oral: berberine 1 g/day, metformin 1.5 g/day, rosiglitazone 4 mg/day
molecule,measurement,setting,value
3H-berberine,Vd,"[1]; 5 rabbits, intravenously 25 MBq/kg",20 ± 3 L/kg
same,Vd,"[1]; four rabbits, intravenous drip 46.25 Mbq/kg",22.1 ± 1.7 L/kg
same,"distribution of concentrations in tissues, highest to lowest",[2],lung>liver>kidney>spleen>heart>intestine>stomach>brain
same,oral dose measured in the fecal matter,[3],86%
same,oral dose measured in the urine,[3],2.7%
CC(=O)[O-].COc1ccc2cc3[n+](cc2c1OC)CCc1cc2c(cc1-3)OCO2 [3. Acetate],Amount of Solvent,[4],9.0
CC(O)C(=O)[O-].COc1ccc2cc3[n+](cc2c1OC)CCc1cc2c(cc1-3)OCO2 [4. Lactate],Amount of Solvent,[4],6.0
COc1ccc2cc3[n+](cc2c1OC)CCc1cc2c(cc1-3)OCO2.CS(=O)(=O)[O-] [6. Methanesulfonate],Amount of Solvent,[4],1.5
COc1ccc2cc3[n+](cc2c1OC)CCc1cc2c(cc1-3)OCO2.O=S(=O)([O-])O [7. Hydrosulfate],Amount of Solvent,[4],1.5
COc1ccc2cc3[n+](cc2c1OC)CCc1cc2c(cc1-3)OCO2.COc1ccc2cc3[n+](cc2c1OC)CCc1cc2c(cc1-3)OCO2.O=S(=O)([O-])[O-] [8. Sulfate],Amount of Solvent,[4],0.5
COc1ccc2cc3[n+](cc2c1OC)CCc1cc2c(cc1-3)OCO2.O=C([O-])c1ccccc1 [13. Benzoate],Amount of Solvent,[4],7.0
COc1ccc2cc3[n+](cc2c1OC)CCc1cc2c(cc1-3)OCO2.Cc1ccc(S(=O)(=O)[O-])cc1 [15. Toluenesulfonate],Amount of Solvent,[4],11.0
COc1ccc2cc3[n+](cc2c1OC)CCc1cc2c(cc1-3)OCO2.O=C([O-])C(F)(F)F [16. Trifluoroacetate],Amount of Solvent,[4],7.5
N#CC(=C(/N)Sc1ccccc1N)/C(C#N)=C(\N)Sc1ccccc1N [U0126],effect of inhibitor on the activity of berberine on InsR gene transcription,[5],did not effect
same,effect of inhibitor on berberine-increased level of LDLR mRNA,[6],completely abolished
COc1ccc2cc3[n+](cc2c1OC)CCc1cc2c(cc1-3)OCO2 [berberine hydrochloride],lowering of serum LDL,[7]; [13],20%
same,lowering of serum cholesterol,[7]; [13],18%
same,lowering of serum triglycerides,[7]; [13],28%
same,decrease of serum LDL,[7]; [14],25%
same,decrease of serum cholesterol,[7]; [14],29%
same,decrease of serum triglycerides,[7]; [14],35%
"CC[C@H](C)C(=O)O[C@H]1C[C@@H](C)C=C2C=C[C@H](C)[C@H](CC[C@@H]3C[C@@H](O)CC(=O)O3)[C@H]21 [lovastatin, reference compound]",Cholesterol Day 15,[8]; [15],2.7 mmol/L
same,LDL Day 15,[8]; [15],1.62 mmol/L
same,Cholesterol Day 0,[8]; [16],3.6 mmol/L
same,LDL Day 0,[8]; [16],2.15 mmol/L
"CN(C)C(=N)N=C(N)N [metformin, reference compound]",HbA1c,[9]; [17],7.2 ± 0.3 %
same,Triglyceride,[9]; [17],1.6 ± 0.1 mmol/L
same,FBG (fasting blood glucose),[9]; Before treatment (baseline),10.9 ± 0.5 mmol/L
same,HbA1c,[9]; Before treatment (baseline),9.4 ± 0.5%
same,Triglyceride,[9]; Before treatment (baseline),1.7 ± 0.2 mmol/L
"CN(CCOc1ccc(CC2SC(=O)NC2=O)cc1)c1ccccn1 (stereo not drawn) [rosiglitazone, reference compound]",HbA1c,[9]; [17],6.8 ± 0.3 %
same,Triglyceride,[9]; [17],1.6 ± 0.1 mmol/L
same,FBG (fasting blood glucose),[9]; Before treatment (baseline),9.1 ± 0.8 mmol/L
same,HbA1c,[9]; Before treatment (baseline),8.3 ± 0.4%
same,Triglyceride,[9]; Before treatment (baseline),1.9 ± 0.3 mmol/L
"CCC(C)(C)C(=O)O[C@H]1C[C@@H](C)C=C2C=C[C@H](C)[C@H](CC[C@@H]3C[C@@H](O)CC(=O)O3)[C@H]21 [simvastatin, reference compound]",LDL-c,[10],1.4 ± 0.1 mmol/L
same,Total Cholesterol,[10],3.6 ± 0.4 mmol/L
same,Triglyceride,[10],2.5 ± 0.3 mmol/L
Calphostin C,effect of PKC inhibitor pre-treatment on berberine stimulation of InsR gene promoter,[11],diminished the ability of berberine to stimulate the InsR gene promoter
same,effect of inhibitor on the activity of berberine on InsR gene transcription,[5],completely eliminated
same,effect of inhibitor on berberine-increased level of LDLR mRNA,[6],did not change
"oncostatin M: cytokine oncostatin M that induces transcription of the LDLR gene (protein, UniProt P13725 26-221, looked up) Oncostatin-M: AAIGSCSKEYRVLLGQLQKQTDLMQDTSRLLDPYIRIQGLDVPKLREHCRERPGAFPSEETLRGLGRRGFLQTLNATLGCVLHRLADLEQRLPKAQDLERSGLNIEDLEKLQMARPNILGLRNNIYCMAQLLDNSDTAEPTKAGRGASQPPTPTPASDAFQRKLEGCRFLHGYHRFMHSVGRVFSKWGESPNRSRR",LDLR promoter activity,[12],strongly elevated
